Columns and labels:
[1] = biological target: [CK1α]-[compound]-[CRBN/DDB1] ternary complex (Homo sapiens, UniProt P48729+Q96SW2); experiment: AlphaLISA assay for off-target recruitment detection, CK1α; format: binding; settings: 1 μM compound; normalized to FPFT-2216; read-out: Normalized ternary complex response, CK1α
Outline: (§1)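 Neo-substrate with 40 μg/ml donor beads and 200 nM 6×His-CRBN/DDB1 with 40 μg/ml anti-His acceptor beads were each prepared in PBS pH 7.4 with Tween-20 and 1 mM DTT, preincubated 30 min at RT, then mixed. Compounds at 2% DMSO were incubated 30 min at 25 °C, read at 680/615 nm, and normalised between DMSO background and reference glue maximum.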

[2] = biological target: [GSPT1]-[compound of formula (I)]-[CRBN/DDB1] complex (Homo sapiens, UniProt P15170+Q96SW2); experiment: HTRF ternary complex assay (GSPT1); format: binding; settings: read-out: HTRF ternary complex Average pEC50 by molecule (converted)
Outline: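 Compounds in dose-response were incubated 180 min at 25 °C with 48 nM GSPT1 and 52.8 nM 6×His-CRBN/DDB1, plus Streptavidin-Eu cryptate and anti-6×His-d2, in buffer with 1 mM DTT and 0.5% DMSO. TR-FRET (665/620) was normalized to DMSO background and fitted with a Hill slope model for EC50/pEC50.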

[3] = biological target: CRBN/DDB1 protein complex (Homo sapiens, UniProt Q96SW2); experiment: CRBN displacement TR-FRET assay; settings: Thalidomide-Red tracer, 6×His-CRBN/DDB1; read-out: CRBN binding Ki
Outline: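 Test compound at various concentrations competed with 6.8 nM Thalidomide-Red tracer for 5 nM 6×His-CRBN/DDB1, detected with 0.5 nM anti-His-Eu cryptate in buffer with 1 mM DTT and 1% DMSO. Incubation ran 180 min at room temperature with a time-resolved fluorescence read-out. IC50 values were converted to Ki by Cheng–Prusoff using tracer Kd and protein and tracer concentrations.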

[4] = biological target: T1, [SALL4 ZF2]-[compound]-[CRBN/DDB1] ternary complex (Homo sapiens, UniProt Q96SW2+Q9UJQ4); experiment: AlphaLISA assay for off-target recruitment detection, SALL4 ZF2; format: binding; settings: 1 μM compound; normalized to Lenalidomide; read-out: Normalized ternary complex response, SALL4 ZF2
T1 construct: SALL4 ZF2
Outline: as §1

[5] = biological target: T2, [IKZF1 ZF2]-[compound]-[CRBN/DDB1] ternary complex (Homo sapiens, UniProt Q13422+Q96SW2); experiment: AlphaLISA assay for off-target recruitment detection, IKZF1 ZF2; format: binding; settings: 1 μM compound; normalized to Lenalidomide; read-out: Normalized ternary complex response, IKZF1 ZF2
T2 construct: IKZF1 ZF2
Outline: as §1

T1 sequence (Q9UJQ4 410-432 limits assumed): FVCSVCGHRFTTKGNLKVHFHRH
T1 sequence (Q96SW2 whole entry): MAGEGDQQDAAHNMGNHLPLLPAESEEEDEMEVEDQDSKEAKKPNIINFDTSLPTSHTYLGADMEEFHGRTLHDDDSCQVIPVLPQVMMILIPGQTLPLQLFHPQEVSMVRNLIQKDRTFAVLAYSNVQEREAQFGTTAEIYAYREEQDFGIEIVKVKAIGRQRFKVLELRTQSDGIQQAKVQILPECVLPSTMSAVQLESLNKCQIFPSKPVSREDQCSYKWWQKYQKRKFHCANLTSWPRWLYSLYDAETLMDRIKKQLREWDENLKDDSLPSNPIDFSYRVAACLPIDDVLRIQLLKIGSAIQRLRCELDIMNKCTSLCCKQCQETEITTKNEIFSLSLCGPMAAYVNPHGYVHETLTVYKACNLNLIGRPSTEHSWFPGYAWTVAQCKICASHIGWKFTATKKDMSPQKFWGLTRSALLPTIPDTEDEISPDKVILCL
T1 sequence (Q16531 whole entry partner): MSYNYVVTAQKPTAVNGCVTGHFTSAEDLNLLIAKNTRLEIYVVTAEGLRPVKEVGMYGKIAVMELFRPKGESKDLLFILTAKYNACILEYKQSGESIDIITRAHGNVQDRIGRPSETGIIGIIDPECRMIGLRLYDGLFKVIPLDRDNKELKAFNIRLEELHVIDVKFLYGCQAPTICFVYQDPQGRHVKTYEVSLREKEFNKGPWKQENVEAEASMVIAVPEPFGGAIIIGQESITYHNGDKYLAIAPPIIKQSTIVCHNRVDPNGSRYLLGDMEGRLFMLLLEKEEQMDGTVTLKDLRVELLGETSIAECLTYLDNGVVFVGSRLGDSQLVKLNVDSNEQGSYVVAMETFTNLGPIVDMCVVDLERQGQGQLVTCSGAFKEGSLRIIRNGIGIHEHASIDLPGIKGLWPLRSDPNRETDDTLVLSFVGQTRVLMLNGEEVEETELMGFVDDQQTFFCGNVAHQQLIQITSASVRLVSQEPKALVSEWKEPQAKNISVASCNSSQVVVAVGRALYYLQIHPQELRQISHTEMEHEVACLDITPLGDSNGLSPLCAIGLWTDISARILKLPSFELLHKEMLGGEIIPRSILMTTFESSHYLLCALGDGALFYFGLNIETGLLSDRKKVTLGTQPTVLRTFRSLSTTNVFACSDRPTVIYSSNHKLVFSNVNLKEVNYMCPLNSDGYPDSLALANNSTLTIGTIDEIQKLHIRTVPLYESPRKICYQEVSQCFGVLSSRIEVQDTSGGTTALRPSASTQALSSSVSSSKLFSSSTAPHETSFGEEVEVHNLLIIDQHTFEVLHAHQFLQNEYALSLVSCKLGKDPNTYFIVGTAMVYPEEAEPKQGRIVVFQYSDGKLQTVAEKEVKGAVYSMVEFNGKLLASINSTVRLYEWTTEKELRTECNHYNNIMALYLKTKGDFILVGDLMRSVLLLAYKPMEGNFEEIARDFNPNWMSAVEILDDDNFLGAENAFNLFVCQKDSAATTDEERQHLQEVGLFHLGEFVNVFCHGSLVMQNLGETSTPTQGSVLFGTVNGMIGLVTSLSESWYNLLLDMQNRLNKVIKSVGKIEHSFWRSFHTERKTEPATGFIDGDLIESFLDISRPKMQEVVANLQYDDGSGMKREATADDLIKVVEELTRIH
Sequence of CRBN/DDB1 protein complex (Q96SW2 whole entry, species assumed): as the sequence (Q96SW2 whole entry) above
Sequence of CRBN/DDB1 protein complex (Q16531 whole entry partner, species assumed): as the sequence (Q16531 whole entry partner) above
Sequence of [GSPT1]-[compound of formula (I)]-[CRBN/DDB1] complex (P15170 whole entry): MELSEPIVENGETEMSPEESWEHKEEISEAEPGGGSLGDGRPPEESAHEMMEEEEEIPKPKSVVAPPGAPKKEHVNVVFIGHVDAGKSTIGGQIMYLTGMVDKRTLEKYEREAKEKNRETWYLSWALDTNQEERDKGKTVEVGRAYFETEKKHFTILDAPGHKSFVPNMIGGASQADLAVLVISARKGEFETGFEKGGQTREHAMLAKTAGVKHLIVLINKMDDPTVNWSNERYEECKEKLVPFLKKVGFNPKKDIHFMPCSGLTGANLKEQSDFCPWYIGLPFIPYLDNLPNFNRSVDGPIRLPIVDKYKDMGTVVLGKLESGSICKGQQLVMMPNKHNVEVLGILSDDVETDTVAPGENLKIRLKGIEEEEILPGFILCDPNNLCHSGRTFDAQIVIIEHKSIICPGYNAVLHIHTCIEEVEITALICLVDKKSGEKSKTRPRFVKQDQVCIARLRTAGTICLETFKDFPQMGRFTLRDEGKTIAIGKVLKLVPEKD
Sequence of [GSPT1]-[compound of formula (I)]-[CRBN/DDB1] complex (Q96SW2 whole entry): as the sequence (Q96SW2 whole entry) above
Sequence of [GSPT1]-[compound of formula (I)]-[CRBN/DDB1] complex (Q16531 whole entry partner): as the sequence (Q16531 whole entry partner) above
T2 sequence (Q13422 145-167 limits assumed): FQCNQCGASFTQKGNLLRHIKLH
T2 sequence (Q96SW2 whole entry): as the sequence (Q96SW2 whole entry) above
T2 sequence (Q16531 whole entry partner): as the sequence (Q16531 whole entry partner) above
Sequence of [CK1α]-[compound]-[CRBN/DDB1] ternary complex (P48729 whole entry): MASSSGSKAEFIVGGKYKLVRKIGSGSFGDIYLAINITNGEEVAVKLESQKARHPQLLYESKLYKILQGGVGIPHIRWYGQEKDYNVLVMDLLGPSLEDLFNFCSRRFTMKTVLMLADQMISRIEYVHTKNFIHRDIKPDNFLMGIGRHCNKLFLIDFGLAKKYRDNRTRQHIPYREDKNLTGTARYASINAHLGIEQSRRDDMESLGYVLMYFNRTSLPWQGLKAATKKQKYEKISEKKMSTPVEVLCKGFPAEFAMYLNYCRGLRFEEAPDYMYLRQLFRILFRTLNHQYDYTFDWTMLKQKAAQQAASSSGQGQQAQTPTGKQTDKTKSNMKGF
Sequence of [CK1α]-[compound]-[CRBN/DDB1] ternary complex (Q96SW2 whole entry): as the sequence (Q96SW2 whole entry) above
Sequence of [CK1α]-[compound]-[CRBN/DDB1] ternary complex (Q16531 whole entry partner): as the sequence (Q16531 whole entry partner) above

| Compound | activation at 1 µM [1] [%] | EC50 [2] [nM] | Ki [3] [nM] | activation at 1 µM [4] [%] | activation at 1 µM [5] [%] |
| --- | --- | --- | --- | --- | --- |
| Cc1nc2ccc(COC(=O)Nc3cc(C(C)(C)C)no3)cc2cc1N1CCC(=O)NC1=O [Compound 66, (3-(2,4-dioxotetrahydropyrimidin-1(2H)-yl)-2-methylquinolin-6-yl)methyl (3-(tert-butyl)isoxazol-5-yl)carbamate] | 10 to 25 | 316 to 3160 | < 500 | 25 to 50 | 25 to 50 |
| Cc1nc2ccc(CNC(=O)Nc3cc(C(C)(C)C)no3)cc2cc1N1CCC(=O)NC1=O [Compound 67, 1-(3-(tert-butyl)isoxazol-5-yl)-3-((3-(2,4-dioxotetrahydropyrimidin-1(2H)-yl)-2-methylquinolin-6-yl)methyl)urea] | 10 to 25 | < 316 | < 500 | 25 to 50 | ≥ 50 |
| Cc1nc2cc(COC(=O)Nc3cc(C(F)(F)F)n[nH]3)ccc2cc1C1CCC(=O)NC1=O (stereo not shown) [Compound 69, (3-(2,6-dioxopiperidin-3-yl)-2-methylquinolin-7-yl)methyl (3-(trifluoromethyl)-1H-pyrazol-5-yl)carbamate] | < 10 | 316 to 3160 | > 1000 | < 10 | < 10 |
| Cc1nc2cc(COC(=O)Nc3cc(C(C)(C)C)on3)ccc2cc1C1CCC(=O)NC1=O (stereo not shown) [Compound 70, (3-(2,6-dioxopiperidin-3-yl)-2-methylquinolin-7-yl)methyl (5-(tert-butyl)isoxazol-3-yl)carbamate] | < 10 | < 316 | < 500 | < 10 | < 10 |
| Cc1nc2cc(COC(=O)Nc3cc(C(F)(F)F)no3)ccc2cc1C1CCC(=O)NC1=O (stereo not shown) [Compound 71, (3-(2,6-dioxopiperidin-3-yl)-2-methylquinolin-7-yl)methyl (3-(trifluoromethyl)isoxazol-5-yl)carbamate] | < 10 | > 3160 | > 1000 | < 10 | < 10 |
| Cc1nc2cc(COC(=O)Nc3cc(C(C)(C)C)no3)ccc2cc1N1CCC(=O)NC1=O [Compound 72, (3-(2,4-dioxotetrahydropyrimidin-1(2H)-yl)-2-methylquinolin-7-yl)methyl (3-(tert-butyl)isoxazol-5-yl)carbamate] | < 10 | 316 to 3160 | 500 to 1000 | < 10 | < 10 |
| Cc1ccc(NC(=O)OCc2ccc3cc(C4(F)CCC(=O)NC4=O)c(C)nc3c2)cc1Cl (stereo not shown) [Compound 74, (3-(3-fluoro-2,6-dioxopiperidin-3-yl)-2-methylquinolin-7-yl)methyl (3-chloro-4-methylphenyl)carbamate] | < 10 | > 3160 | > 1000 | < 10 | < 10 |
| Cc1nc2cc(COC(=O)Nc3cc(C(C)(C)C)n[nH]3)ccc2cc1C1CCC(=O)NC1=O (stereo not shown) [Compound 75, (3-(2,6-dioxopiperidin-3-yl)-2-methylquinolin-7-yl)methyl (3-(tert-butyl)-1H-pyrazol-5-yl)carbamate] | < 10 | 316 to 3160 | > 1000 | < 10 | < 10 |
| Cc1nc2cc(COC(=O)Nc3nc(C(C)(C)C)no3)ccc2cc1C1CCC(=O)NC1=O (stereo not shown) [Compound 80, (3-(2,6-dioxopiperidin-3-yl)-2-methylquinolin-7-yl)methyl (3-(tert-butyl)-1,2,4-oxadiazol-5-yl)carbamate] | < 10 | 316 to 3160 | 500 to 1000 | < 10 | < 10 |
| Cc1nc2cc(COC(=O)Nc3cc(C4(C(F)(F)F)CC4)no3)ccc2cc1C1CCC(=O)NC1=O (stereo not shown) [Compound 81, (3-(2,6-dioxopiperidin-3-yl)-2-methylquinolin-7-yl)methyl (3-(1-(trifluoromethyl)cyclopropyl)isoxazol-5-yl)carbamate] | < 10 | < 316 | < 500 | < 10 | < 10 |
| [2H]C([2H])(OC(=O)Nc1cc(C(C)(C)C)no1)c1ccc2cc(C3CCC(=O)NC3=O)c(C)nc2c1 (stereo not shown) [Compound 82, (3-(2,6-dioxopiperidin-3-yl)-2-methylquinolin-7-yl)methyl-d2 (3-(tert-butyl)isoxazol-5-yl)carbamate] | < 10 | < 316 | < 500 | < 10 | < 10 |
